From a melting point compilation (Tetko et al.; mined from patent text by program, amines drawn as free bases though some values may be those of a salt)

melting point [°C] | SMILES
140 | COc1cc2c(cc1I)CCC2=O
209 to 210 | COc1ccc2c(c1)NC(=O)C(C(=O)N(C)C)C2 (stereo not given)
251 to 253 | COc1cc(OC)c2c(=O)[nH]c(-c3cccc(N4CCN(C(C)C)CC4)c3)nc2c1
204 to 206 | CC(=O)OC(C)c1ccc(Cl)c2nc3n(c12)CCCN3c1ccc(Cl)cc1Cl (stereo not given)
183 to 185 | Cc1ccc(C2=C(c3ccc(S(C)(=O)=O)cc3)C(=O)N(C)C2)cc1
226 to 228 | Nc1c(Br)cc(O)c2c1C(=O)c1ccccc1C2=O
152 to 153 | COc1ccc(CCNc2nc(Cl)nc(N3CCc4cc(OC)c(OC)cc4C3)n2)cc1OC
124 to 126 | CCc1cc(C(C)=O)c(OC)cc1OCc1cccc(C#N)c1
158 to 160 | COc1nc(C)c(C)nc1NC(=O)N1CCN(c2cccc(Br)c2)CC1
202 to 204 | CCCn1c(COCC)nc2c(N)nc3ccc(OCCNC(=O)C4CCCO4)cc3c21 (stereo not given)
175 to 176 | Cc1sc(N2C(=O)OCC2(C)C)nc1-c1ccc(Br)cc1
160 to 162 | CCC(CC)c1ccc(Cl)c2nc3n(c12)CCCCN3c1ccc(Cl)cc1Cl
295 to 296 | O=c1[nH]c2cccc(Cl)c2c2cc(CO)nn12
170 to 172 | COC(=O)c1cc(Nc2ccc(C)cc2)c(Nc2ccc(C)cc2)cc1C(=O)OC
238 to 242 | COc1ccc2nc(-n3ccnc3)nc(NCCS(C)=O)c2c1 (stereo not given)
106 to 107 | Cc1oc(-c2ccccc2)nc1COc1ccc(Cn2cc(CCC(=O)O)c(OC(C)C)n2)cc1
199 | CN(C)CCCOc1ccc(-c2ccc(C(=O)O)cc2)cc1-c1ccc2c(c1)C(C)(C)CCC2(C)C
> 230 | CN(C)C(c1ccccc1Cl)C1CCCCC1(O)c1ccc2ccccc2c1 (stereo not given)
145 to 147 | COc1ccc2c(c1)N(CC(=O)O)C(=O)C(N=[N+]=[N-])CC2 (stereo not given)
133 to 134 | COC(=O)c1cccc(C(=O)c2ccc(O)c(OC)c2)c1
96 to 98 | CC(C)c1ccc(O)c(C(C)C)c1NC(=O)CN1CCN(CCSc2nc3ccccc3o2)CC1
144 to 146 | CC1Nc2ccc(-c3cccc(Cl)c3)cc2C(C)(C)O1 (stereo not given)

melting point [°C] | SMILES
144 to 146 | CCCc1nc(C)cc(=O)n1CCOc1ccc(CC2SC(=O)NC2=O)cc1 (stereo not given)
152 to 153 | COc1ccc2c(c1)CC(=O)c1cc(C(C)C(=O)O)ccc1S2 (stereo not given)
> 250 | NC(=O)Nc1ccc(N2CCN(c3ccncc3)CC2)cc1
230 | COc1cc(-c2cc3ccccc3[nH]2)cc(OC)c1O
191 to 193 | CN(C)C1CCN(C(=O)C2CCC(c3[nH]nc4c3C(=O)c3c(NC(=O)NN5CCOCC5)cccc3-4)CC2)C1 (stereo not given)
172 to 173 | COc1ccc2nc(N)nc(C3CCN(C(=O)c4ccccc4)CC3)c2c1
195 to 197 | c1ccc2nc(CCN3CCc4[nH]c5ccccc5c4C3)ccc2c1
207 to 208 | O=C1NCCc2c(CCc3ccccc3)[nH]c3cccc1c23
175 | O=S1(=O)c2cccc3cccc(c23)N1CCCN1CCN(c2cccc(O)c2)CC1
219 to 223 | CC(=O)NCC1CN(c2ccc(N3CCN(C4=NCCS4)CC3)c(F)c2)C(=O)O1 (stereo not given)
224 to 225 | Cc1c(Cl)cccc1-n1c(=O)[nH]c2cccnc21
111 | CN1CC(c2ccc(S(C)(=O)=O)cc2)=C(c2ccc(F)cc2)C1=O
116 to 117 | CCC1(CCCCN2CCN(c3cccc(Cl)c3)CC2)C(=O)Nc2cc(F)ccc21 (stereo not given)
114 to 117 | COc1ccccc1-c1ccc(S(=O)(=O)Nc2onc(C)c2Br)s1
84 to 88 | CN1CCN(c2ccc(O)c3c2C[C@H](NC(=O)c2ccc(N4CCOCC4)cc2)CC3)CC1
115 to 118 | CCCc1c(OCCCCCCc2cccc(OC)c2OC)ccc(C(=O)O)c1O
153 to 155 | CCOC(=O)c1cccc(NC(=O)c2ccc(OC)c(NCc3cccs3)c2)c1
73 to 75 | COc1ccc(C(c2ccc(OC)cc2)(c2ccc(OC)cc2)N2CCCCC2)cc1
159 | Cn1cc(-c2cc(-c3cnc4[nH]cc(C(F)(F)F)c4c3)ccn2)n(-c2ccc(C(C)(C)C#N)cc2)c1=O
201 to 203 | CC1=CC(c2cccc(Cl)c2)C2=C(CCCC2=O)N1 (stereo not given)
277 to 279 | CCOC(=O)N1CCN(c2nc3c(cc2F)c(=O)c(C(=O)O)cn3C2CC2)CC1
190 to 192 | CSc1cccc(Nc2nc(OCC3CCCCC3)c3[nH]cnc3n2)c1

Second part, the compound before the results:

SMILES | melting point [°C]
Cc1cccc(C)c1C(=O)c1nc[nH]c1C | 179 to 181
CCOC(OCC)c1cc(NC(c2ccccc2)(c2ccccc2)c2ccccc2)c(F)c(-c2ccc(Cl)c(OC)c2F)n1 | 177 to 180
CCCC12CCC(=O)C=C1c1c(cc(OCC(=O)O)c(Cl)c1Cl)CC2 (stereo not given) | 193 to 194
NS(=O)(=O)c1cc2c(s1)S(=O)(=O)N(CCN1CCOCC1)N=C2 | 164 to 166
CC(C)(C(=O)C=Cc1ccc(Cl)cc1Cl)C1OCCO1 | 92 to 93
COc1ccc(-c2sc3ccccc3c2Oc2ccc(OCc3ccccc3)cc2)cc1F | 122 to 123
C/C=C\NC(=O)c1c(Cl)cccc1[Si](C)(C)C | 101 to 102
O=C(Nc1ccc(-n2nc(C(F)(F)F)cc2OC(F)F)cc1)c1ccccc1Cl | 122 to 123
CC(C(=O)c1ccccn1)c1ccc(C2CCCCC2)cc1 (stereo not given) | 80 to 81
O=C(O)COc1cc2cc(C3CCCC3)sc2c(Cl)c1Cl | 173 to 174
COc1c(C=Cc2ccc(C=CC3=C(C#N)C(=C(C#N)C#N)OC3(C)C(F)(F)F)s2)cc2c3c1CCCN3CCC2 (stereo not given) | 159 to 161
O=C(CCC1CCCCC1)NC1N=C(c2ccccc2)c2ccccc2NC1=NO (stereo not given) | 196
O=C(O)CC1CCc2c(cccc2OC2CCCCO2)C1 (stereo not given) | 104 to 109
O=CNNc1ccc([N+](=O)[O-])cc1 | 183 to 185
COCCOc1ccc(-c2ccc3c(c2)C=C(C(=O)Nc2ccc(CN(C)C4CCOCC4)cc2)CCS3(=O)=O)cc1 | 227 to 231
Nc1cccc(-c2cccc(CC3CCCC3NCCc3ccccc3)c2)n1 (stereo not given) | 110 to 130
FC(F)(F)c1ccc2nc[nH]c2c1 | 89 to 91
O=[N+]([O-])c1ccc2oc(CO)cc2c1 | 115 to 116
C1CCC(N2CCCC2)C2NCCCC2C1 (stereo not given) | 30 to 35

SMILES | melting point [°C]
CC(SC1COC(c2cccc(C(=O)Nc3ccc(Cl)cc3)c2)OC1)C(O)(Cn1cncn1)c1ccc(F)cc1F (stereo not given) | 90
CCOC(=O)c1c[nH]cc1-c1ccccc1[N+](=O)[O-] | 159 to 161
O=[N+]([O-])c1ccc(Oc2cccc3cccnc23)cc1 | 165 to 166
CC(C)(O)C#Cc1ccccc1 | 52 to 53
CN(C)CCCOc1ccc(N(C(=O)c2ccc([N+](=O)[O-])cc2)c2ccccc2)cc1 | 89.5 to 92.5
Cc1cc(O)c(S(=O)CC2CCCCC2)c(=O)o1 (stereo not given) | 132 to 134
CN1CC(CCCl)Oc2ncc(Cl)cc2C1=S (stereo not given) | 125 to 127
CCCc1c(OCCCCCCc2cccc(OCCCCCCCCC(=O)O)c2CCC(=O)O)ccc2c1OCCC2=O | 63 to 65
CCS(=O)c1ccc(-c2coc3ccc(-c4nnc(C)o4)cc23)cc1 (stereo not given) | 156 to 157
CCc1c(C(=O)c2cc(C)cc(C)c2)n(CC=C(C)C)c(=O)[nH]c1=O | 255 to 260
CCC(=O)c1cc(C#N)c(=O)[nH]c1C=CN(C)C | 278 to 280
COc1c(Cl)ccc(-c2cc(N)c(Cl)c(C(=O)NOCC3CC3)n2)c1F | 164 to 166
NS(=O)(=O)c1ccc(NN=C2C(=O)Nc3cc(Br)ccc32)cc1 | > 250
O=C(CCCO)c1cccnc1 | 36 to 37
CCCCC1(CCCC)c2cc(Br)ccc2-c2ccc(Br)cc21 | 117 to 118
N#Cc1cc(-c2c3ccccc3cc3sc4ccccc4c23)ccc1OCC(=O)O | 235 to 236
CCCCCCC(O)Cn1ccnc1 (stereo not given) | 44 to 45.5
CC(O)(COc1ccc(-c2ccc(Cl)cc2)cc1)CN1CCCC1 (stereo not given) | 121 to 122
CC(=O)Nc1ccc(S(=O)(=O)NCCc2ccccc2)cc1 | 98

SMILES | melting point [°C]
O=C(O)c1ccc(O)c(Oc2ccccc2)c1 | 181 to 183
O=C(O)C(=O)c1ccc(OCCSc2ccccc2)cc1 | 72 to 73
O=Cc1cccnc1Br | 74 to 76
Nc1ccc2oc(CCC(F)(F)F)cc2c1 | 74
CCCN(CCC)C(=O)c1cc(C)cc(C(=O)N[C@@H](Cc2cc(F)cc(F)c2)[C@@H](O)CCN)c1 | 61 to 72
Nc1ccc(CCCO)cc1 | 54 to 56
Cc1ccc(Cc2c[nH]c(NCCSCc3ccco3)nc2=O)cn1 | 147 to 152
O=C(c1ccn2c1CSC2c1cccnc1)c1cn(C(=O)NCCc2c[nH]cn2)c2cc(-c3ccc(F)cc3)ccc12 (stereo not given) | 156 to 158
Cc1ccc(C(=O)Nc2c(NC(=O)CCl)ccc3c2C(=O)c2ccccc2C3=O)cc1 | 198 to 199
Cc1cncn1CC#CCn1ccn(C)c1=O | 149 to 153
CCOC(=O)C1=C(COCCNc2nccs2)NC(C)=C(C(=O)OC)C1c1ccccc1Cl (stereo not given) | 134
N#Cc1cnc2sc(-c3ccccc3)cc2c1Nc1cccc2[nH]ccc12 | > 245
CC(=O)n1nc(C(=O)NC2CN(C)CCN(Cc3ccccc3)C2)c2ccccc21 (stereo not given) | 166 to 168
COC(=O)NC(=N)CC(C)C | 82 to 86
CCCNC(=O)NCc1ccc2c(c1)C(=O)N(C1CCC(=O)NC1=O)C2=O (stereo not given) | 166 to 168
CC(SCc1cc2cc(C(F)(F)F)ccc2n1S(=O)(=O)c1ccccc1)C(=O)O (stereo not given) | 120
CS(=O)(=O)N1CCN(S(=O)(=O)c2ccc3c(c2)S(=O)(=O)NC(C2CCCCC2)N3)CC1 (stereo not given) | 272 to 274
CCCOc1ccc(OCC(O)CNCCNc2c(C)cccc2C)cc1 (stereo not given) | 51 to 54
